Test results: ChEMBL document CHEMBL1154822, “Synthesis and antiproliferative activity of 7-azaindirubin-3'-oxime, a 7-aza isostere of the natural indirubin pharmacophore” (J Nat Prod, 2009)

Legend:
SK-OV-3 = experiment: Cytotoxicity against human SKOV3 cells assessed as cell growth at 1 uM after 1 to 11 days by MTT assay; assay type: functional; details: read-out: Activity
UO-31 = experiment: Cytotoxicity against human UO31 cells assessed as cell growth at 1 uM after 1 to 11 days by MTT assay; assay type: functional; details: read-out: Activity
DU-145 [1] = experiment: Cytotoxicity against human DU145 cells assessed as cell growth at 1 uM after 1 to 11 days by MTT assay; assay type: functional; details: read-out: Activity
MDA-MB-231 = experiment: Cytotoxicity against human MDA-MB-231 cells assessed as cell growth at 1 uM after 1 to 11 days by MTT assay; assay type: functional; details: read-out: Activity
SK-MEL-5 [2] = experiment: Cytotoxicity against human SK-MEL-5 cells assessed as cell growth at 10 uM after 1 to 11 days by MTT assay; assay type: functional; details: read-out: Activity
OVCAR-8 [3] = experiment: Cytotoxicity against human OVCAR8 cells assessed as cell growth at 10 uM after 1 to 11 days by MTT assay; assay type: functional; details: read-out: Activity
786-0 = experiment: Cytotoxicity against human 786-0 cells assessed as cell growth at 10 uM after 1 to 11 days by MTT assay; assay type: functional; details: read-out: Activity
NCI-H226 = experiment: Cytotoxicity against human NCI-H226 cells assessed as cell growth at 10 uM after 1 to 11 days by MTT assay; assay type: functional; details: read-out: Activity
LOX IMVI [4] = experiment: Cytotoxicity against human LOXIMVI cells assessed as cell growth at 100 uM after 1 to 11 days by MTT assay; assay type: functional; details: read-out: Activity
PC-3 = experiment: Cytotoxicity against human PC3 cells assessed as cell growth at 10 uM after 1 to 11 days by MTT assay; assay type: functional; details: read-out: Activity
CCRF-CEM [5] = experiment: Cytotoxicity against human CCRF-CEM cells assessed as cell growth at 100 uM after 1 to 11 days by MTT assay; assay type: functional; details: read-out: Activity
HOP-62 = experiment: Cytotoxicity against human HOP62 cells assessed as cell growth at 100 uM after 1 to 11 days by MTT assay; assay type: functional; details: read-out: Activity
SF-539 = experiment: Cytotoxicity against human SF539 cells assessed as cell growth at 100 uM after 1 to 11 days by MTT assay; assay type: functional; details: read-out: Activity
OVCAR-5 = experiment: Cytotoxicity against human OVCAR5 cells assessed as cell growth at 100 uM after 1 to 11 days by MTT assay; assay type: functional; details: read-out: Activity
DU-145 [6] = experiment: Cytotoxicity against human DU145 cells assessed as cell growth at 100 uM after 1 to 11 days by MTT assay; assay type: functional; details: read-out: Activity
HOP-92 = experiment: Cytotoxicity against human HOP92 cells assessed as cell growth at 1 mM after 1 to 11 days by MTT assay; assay type: functional; details: read-out: Activity
NCI-H522 [7] = experiment: Cytotoxicity against human NCI-H522 cells assessed as cell growth at 1 mM after 1 to 11 days by MTT assay; assay type: functional; details: read-out: Activity
HCT-116 = experiment: Cytotoxicity against human HCT116 cells assessed as cell growth at 1 mM after 1 to 11 days by MTT assay; assay type: functional; details: read-out: Activity
HT-29 [8] = experiment: Cytotoxicity against human HT-29 cells assessed as cell growth at 1 mM after 1 to 11 days by MTT assay; assay type: functional; details: read-out: Activity
SW-620 [9] = experiment: Cytotoxicity against human SW620 cells assessed as cell growth at 1 mM after 1 to 11 days by MTT assay; assay type: functional; details: read-out: Activity
SW-620 [10] = experiment: Cytotoxicity against human SW620 cells after 1 to 11 days by MTT assay; assay type: functional
SK-MEL-5 [11] = experiment: Cytotoxicity against human SK-MEL-5 cells assessed as cell growth at 1 mM after 1 to 11 days by MTT assay; assay type: functional; details: read-out: Activity
T47D = experiment: Cytotoxicity against human T47D cells assessed as cell growth at 1 mM after 1 to 11 days by MTT assay; assay type: functional; details: read-out: Activity
UACC-257 = experiment: Cytotoxicity against human UACC257 cells after 1 to 11 days by MTT assay; assay type: functional
OVCAR-8 [12] = experiment: Cytotoxicity against human OVCAR8 cells after 1 to 11 days by MTT assay; assay type: functional
A498 = experiment: Cytotoxicity against human A498 cells after 1 to 11 days by MTT assay; assay type: functional
NCI/ADR-RES = experiment: Cytotoxicity against human NCI/ADR-RES cells after 1 to 11 days by MTT assay; assay type: functional
[13] = Cytotoxicity against human Hs 578T cells after 1 to 11 days by MTT assay; assay type: functional
[14] = biological target: Glycogen synthase kinase-3 beta (Homo sapiens) (UniProt P49841); experiment: Inhibition of human GSK3-beta assessed as residual enzyme activity at 3 uM after 40 mins by scintillation counting
Sequence of Glycogen synthase kinase-3 beta (Homo sapiens) (P49841 whole entry, looked up): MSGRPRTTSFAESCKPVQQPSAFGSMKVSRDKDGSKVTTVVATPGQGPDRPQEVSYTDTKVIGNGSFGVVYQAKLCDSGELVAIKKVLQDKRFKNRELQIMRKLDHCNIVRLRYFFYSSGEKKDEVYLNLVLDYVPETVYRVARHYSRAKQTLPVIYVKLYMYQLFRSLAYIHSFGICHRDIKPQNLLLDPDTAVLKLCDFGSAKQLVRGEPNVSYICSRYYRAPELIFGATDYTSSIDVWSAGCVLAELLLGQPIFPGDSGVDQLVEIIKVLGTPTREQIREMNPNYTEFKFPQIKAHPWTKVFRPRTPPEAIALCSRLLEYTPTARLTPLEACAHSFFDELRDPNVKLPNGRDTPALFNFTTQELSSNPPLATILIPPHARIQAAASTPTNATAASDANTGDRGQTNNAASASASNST

CCRF-CEM [15] = experiment: Cytotoxicity against human CCRF-CEM cells assessed as cell growth at 0.1 uM after 1 to 11 days by MTT assay; assay type: functional; details: read-out: Activity
RPMI-8226 = experiment: Cytotoxicity against human RPMI8226 cells assessed as cell growth at 0.1 uM after 1 to 11 days by MTT assay; assay type: functional; details: read-out: Activity
SNB-75 = experiment: Cytotoxicity against human SNB75 cells assessed as cell growth at 0.1 uM after 1 to 11 days by MTT assay; assay type: functional; details: read-out: Activity
LOX IMVI [16] = experiment: Cytotoxicity against human LOXIMVI cells assessed as cell growth at 0.1 uM after 1 to 11 days by MTT assay; assay type: functional; details: read-out: Activity
NCI-H460 = experiment: Cytotoxicity against human NCI-H460 cells assessed as cell growth at 0.1 uM after 1 to 11 days by MTT assay; assay type: functional; details: read-out: Activity
NCI-H522 [17] = experiment: Cytotoxicity against human NCI-H522 cells assessed as cell growth at 0.1 uM after 1 to 11 days by MTT assay; assay type: functional; details: read-out: Activity
HT-29 [18] = experiment: Cytotoxicity against human HT-29 cells assessed as cell growth at 0.1 uM after 1 to 11 days by MTT assay; assay type: functional; details: read-out: Activity
KM12 = experiment: Cytotoxicity against human KM12 cells assessed as cell growth at 0.1 uM after 1 to 11 days by MTT assay; assay type: functional; details: read-out: Activity
BT-549 = experiment: Cytotoxicity against human BT549 cells assessed as cell growth at 0.1 uM after 1 to 11 days by MTT assay; assay type: functional; details: read-out: Activity
MOLT-4 = experiment: Cytotoxicity against human MOLT4 cells assessed as cell growth at 1 uM after 1 to 11 days by MTT assay; assay type: functional; details: read-out: Activity
SR = experiment: Cytotoxicity against human SR cells assessed as cell growth at 1 uM after 1 to 11 days by MTT assay; assay type: functional; details: read-out: Activity
HCC 2998 = experiment: Cytotoxicity against human HCC2998 cells assessed as cell growth at 1 uM after 1 to 11 days by MTT assay; assay type: functional; details: read-out: Activity
SNB-19 = experiment: Cytotoxicity against human SNB19 cells assessed as cell growth at 1 uM after 1 to 11 days by MTT assay; assay type: functional; details: read-out: Activity
SK-MEL-5 [19] = experiment: Cytotoxicity against human SK-MEL-5 cells assessed as cell growth at 1 uM after 1 to 11 days by MTT assay; assay type: functional; details: read-out: Activity
[20] = read-out: LC50 (the source's name)

Compound O=C1Nc2ncccc2/C1=C1/Nc2ccccc2/C1=N\O has a growth at 1 µM (SK-OV-3) of 93%, a growth at 1 µM (UO-31) of 80% and a growth at 1 µM (DU-145 [1]) of 102%. The growth at 1 µM (MDA-MB-231) was 88%, the growth at 10 µM (SK-MEL-5 [2]) was 94% and the growth at 10 µM (OVCAR-8 [3]) was 84%. For the same compound, the growth at 10 µM (786-0) was 114%, the growth at 10 µM (NCI-H226) was 53% and the growth at 100 µM (LOX IMVI [4]) was 36%. It also gave a growth at 10 µM (PC-3) of 82%, a growth at 100 µM (CCRF-CEM [5]) of 37% and a growth at 100 µM (HOP-62) of 63%. For the same compound, the growth at 100 µM (SF-539) was 60%, the growth at 100 µM (OVCAR-5) was 88% and the growth at 100 µM (DU-145 [6]) was 39%. It also gave a growth at 1000 µM (HOP-92) of 44%, a growth at 1000 µM (NCI-H522 [7]) of 50% and a growth at 1000 µM (HCT-116) of 50%. The growth at 1000 µM (HT-29 [8]) was 48%, the growth at 1000 µM (SW-620 [9]) was 39% and the GI50 (SW-620 [10]) was 7.45 µM. The TGI (SW-620 [10]) was over 100 µM, the CC50 (SW-620 [10]; [20]) was over 100 µM and the growth at 1000 µM (SK-MEL-5 [11]) was 30%. For the same compound, the growth at 1000 µM (T47D) was 21%, the GI50 (UACC-257) was over 100 µM and the TGI (UACC-257) was over 100 µM. The CC50 (UACC-257; [20]) was over 100 µM, the GI50 (OVCAR-8 [12]) was over 100 µM and the TGI (OVCAR-8 [12]) was over 100 µM. For the same compound, the CC50 (OVCAR-8 [12]; [20]) was over 100 µM, the GI50 (A498) was 1.93 µM and the TGI (A498) was over 100 µM. The CC50 (A498; [20]) was over 100 µM, the GI50 (NCI/ADR-RES) was over 100 µM and the TGI (NCI/ADR-RES) was over 100 µM. For the same compound, the CC50 (NCI/ADR-RES; [20]) was over 100 µM, the GI50 [13] was 2.39 µM and the TGI [13] was over 100 µM. For the same compound, the CC50 [13, 20] was over 100 µM, the Activity [14] was 18% and the growth at 0.1 µM (CCRF-CEM [15]) was 94%. For the same compound, the growth at 0.1 µM (RPMI-8226) was 95%, the growth at 0.1 µM (SNB-75) was 84% and the growth at 0.1 µM (LOX IMVI [16]) was 98%. For the same compound, the growth at 0.1 µM (NCI-H460) was 110%, the growth at 0.1 µM (NCI-H522 [17]) was 100% and the growth at 0.1 µM (HT-29 [18]) was 99%. For the same compound, the growth at 0.1 µM (KM12) was 95%, the growth at 0.1 µM (BT-549) was 89% and the growth at 1 µM (MOLT-4) was 77%. It also gave a growth at 1 µM (SR) of 89%, a growth at 1 µM (HCC 2998) of 87% and a growth at 1 µM (SNB-19) of 97%. The growth at 1 µM (SK-MEL-5 [19]) was 98%.
